According to patent publication US9290464B2 (priority 2010, dated 2016):

Columns and labels:
MPTP-induced mouse = experiment: Tail suspension test in MPTP-induced mouse; type: in vivo, C57BL/6 mice; conditions: FIG. 3
Experimental: The tail suspension test was performed to measure the extent of causation of behavioral loss according to the administration of MPTP and medicines. The TST was performed in such a manner that 7 days after the compounds described above are respectively administered to the three groups, a circular stainless steel stick with a width of 1 cm was fixed to a cage with a width of 16 cm and a height of 40 cm located at a height of 35 cm and whose left and right sides were covered by black wood. The movement time of the mice was measured for 6 minutes in a second unit, and thus the efficacies of the compounds were evaluated.

cytochrome c = experiment: Release of cytochrome c into cytoplasm (western blot) in MPP+-treated cells; type: cell-based, human; conditions: MPP+-added neurons; FIG. 17
Source text: In addition, apoptosis is known to be caused by mechanisms of release of cytochrome c from mitochondria and activation of caspase 3 (The New England journal of Medicine, 348:1365-1375 (2003)). To confirm whether or not the stability of the transmembrane potential of mitochondria by the treatment of CBI is associated with anti-apoptosis of neurons, cell extracts were obtained from the groups of cells, and thus the amount of cytochrome c and the activity of caspase 3 in the cell cytoplasm were measured.
SH-SY5Y cells were incubated under the same conditions as described in Example 7, and then washed with PBS. A protease inhibitor cocktail (Roche) and a phosphatase inhibitor cocktail (Roche) were added to a […] buffer (20 mM HEPES, 10 mM KCl, 2 mM MgCl2, 1 mM EDTA), and the SH-SY5Y cells were treated with 100 ul of the resulting solution and then suspended uniformly. The resultant was maintained on ice for 30 minutes, and then centrifuged at 12,000 rpm for 20 minutes. Subsequently, the same amount of the supernatant was loaded onto a SDS-PAGE gel followed by electrophoresis, the gel was transferred onto a nitrocellulose membrane, the membrane was blotted using cytochrome c (Santacruz, sc13156) diluted to 1:2000 by using a well-known method in the art, and the expression of cytochrome c was evaluated using ECL kit (Amersham Pharmacia).

catalase = experiment: Activity of catalase in striatum and substantia nigra of mouse; type: in vivo, C57BL/6 mice; conditions: 1 mg/kg oral for 8 days, no neurotoxin, FIG. 22
Experimental: Next day after the last day of administration, striatum and substantia nigra tissues were taken out of each group of mice. Cell extracts were obtained from the cells of the tissues, and thus the activities of the catalase, SOD and GPx were measured.

caspase 3 = experiment: Activity of caspase 3/7 (Apo-ONE) in MPP+-treated cells; type: cell-based, human; conditions: 2 mM MPP+, 24 hours; CBI 1, 5, 10 and 50 nM, rasagiline 50 nM; FIG. 18
Experimental: SH-SY5Y cells were incubated in a 96-well plate at a concentration of 5×10^5 cells/well under the same conditions as described above, the cells were treated with 2 mM of MPP^+ and CBI (1, 5, 10 and 50 nM) or rasagiline (50 nM), and the resulting cells were incubated for 24 hours. Subsequently, 100 μl of Apo-ONE caspase 3/7 reagent (Promega, G7790) was added thereto and mixed therewith, and the resultant was further incubated for 4 hours. After the incubation was terminated, fluorescence was measured at an excitation wavelength of 495 nm and an emission wavelength of 521 nm by using a fluorescence plate reader (GeminiXPS, Molecular Devices).

dopamine transporter = experiment: Dopamine transporter binding assay ([125I]PE2I) on striatum sections of MPTP-induced monkey; type: in vivo, Macaque monkeys; conditions: FIG. 2
MPTP-induced monkey = experiment: Parkinson's disease score in MPTP-induced monkey; type: in vivo, Macaque monkeys; conditions: 1 mg/kg oral for 4 weeks after MPTP; compared with group given 1 mg/kg rasagiline; FIG. 1
Experimental: Macaque monkeys (n=35, 3 to 4-year-old) were used as an experimental model. The macaque monkeys were divided into three groups, and 0.2 mg/kg of MPTP was administered to each group (once a day, every day, until Parkinson's disease score reaches 8 or for 14 days) via intravenous injection. […] In addition, to confirm the effect of […] as a dopamine agonist, dopamine transporters existing in medial striatum and caudal striatum taken from the MPTP-induced monkey model were subjected to a dopamine transporter binding assay.
The extent of Parkinson's disease was measured by analyzing videotaped behaviors of each group of monkeys, based on four standards: a) range of movement, b) hypokinesia, c) extent of abnormal posture, and d) tremor. A Parkinson's disease score was evaluated by the sum of (4-range of movement)+hypokinesia+extent of abnormal posture+tremor. […] The Parkinson's disease score was measured for 10 minutes every 30 minutes through 2 hours. That is, the maximum value of the highest Parkinson's disease score is 40. Meanwhile, the measurement method performed based on the four standards was as follows, and evaluated scores below represent representative behaviors observed through observation periods: […]

NGF = experiment: Amount of NGF mRNA in striatum of mouse without neurotoxin; type: in vivo, C57BL/6 mice; conditions: 1 mg/kg oral once a day for 8 days each; FIG. 15
Experimental: Next day after the last day of administration, striatum and substantia nigra tissues were taken out of each group of mice. mRNA was extracted from the cell of the taken tissue, and thus the amount of mRNA of NGF was measured by real-time RT-PCR.

[1] = test system: catalase, superoxide dismutase (SOD) and glutathione peroxidase (GPx); experiment: Activities of antioxidative enzymes in MPP+-treated cells; type: cell-based, human; conditions: 2 mM MPP+, 24 hours; FIG. 21
Experimental: In this embodiment, MAO-B-deficient human neuroblastoma SH-SY5Y cells (Korean Cell Line Bank) were used. The SH-SY5Y cells were distributed into a 6-well plate at a concentration of 1.8×10^5 cells/well, and then incubated with 5% of CO2 at 37° C. for 24 hours. The resulting cells were divided into three groups, 2 mM of MPP^+ was added to each group, two of the three groups were respectively treated 0.1, and the resultant was further incubated with 5% of CO2 at 37° C. for 24 hours. The control group which was not treated with MPP^+ was incubated under the same conditions as described above. Subsequently, cell extracts were obtained from the cells, and thus the activities of antioxidative enzymes, i.e., catalase, superoxide dismutase (SOD) and glutathione peroxidase (GPx) were measured.

NC(=O)OCc1cc(-c2ccc(OCc3ccccc3)cc2)no1 [CBI, carbamic acid 3-(4-benzyloxy-phenyl)-isoxazole-5-yl methylester]
behavioral restoration in tail suspension test compared with rasagiline group (MPTP-induced mouse; 1 mg/kg oral each): excellent capability of behavioral restoration
behaviors in tail suspension test (MPTP-induced mouse; 1 mg/kg oral once a day after MPTP 30 mg/kg i.p. x 4 days): the same extent of behaviors as those of normal mice
amount of cytochrome c in the cytoplasm (cytochrome c): decreased
amount of cytochrome c released from mitochondria compared with same amount of rasagiline (cytochrome c): smaller
increase of the activity of the catalase in the striatum (catalase): about 13%
activity of caspase 3 (caspase 3): reduced
dopamine transporters in medial striatum and caudal striatum (dopamine transporter; 1 mg/kg oral for 4 weeks after MPTP): a large number of dopamine transporters
amount of dopamine transporters compared with rasagiline group (dopamine transporter; same amount (1 mg/kg) of rasagiline): significantly larger amount of dopamine transporters
extent of Parkinson's disease (Parkinson's disease score) (MPTP-induced monkey): significantly decreased extent of Parkinson's disease
expression of NGF in the striatum compared with rasagiline group (NGF): significantly higher
activity of the antioxidative enzymes decreased by MPP+ [1]: an increase in a decreased activity of the antioxidative enzymes
